{"source": "patent US4081530A", "about": "“Extended chain derivatives of somatostatin” (Ayerst, McKenna & Harrison Limited, priority 1975, dated 1978)", "origin": "cited, not measured here", "conditions": "somatostatin-like activity", "data": [{"substance": "[Ala^3,14 ]-somatostatin (AGAKNFFWKTFTSA; Somatostatin-14; UniProt P61278 103-116, looked up, variant C3A C14A) [somatostatin analog synthesised by solid phase methods (Sarantakis et al.)]", "values": [{"measurement": "activity as share of somatostatin's potency", "result": "about 0.01%"}]}]}
